# Laboratory results taken from BindingDB's records for doi:10.1016/j.ejmech.2019.03.019 (Csic - Universidad De Zaragoza, 2019).
# Assay: Inhibition of NS5B RNA dependent RNA polymerase in HCV 1b Con1 infected in human Huh5-2 cells assessed as reduction in viral RNA replication measured after 3 days by luciferase reporter gene assay
row,Compound,EC50
1,CCOC(=O)c1csc([C@H]2[C@@H](COC)C[C@@](CC(C)C)(C(=O)O)N2C(=O)c2ccc(C(C)(C)C)c(OC)c2)n1,60 µM
2,CC[C@H]1[C@@H](COC)C[C@@](CC(C)C)(C(=O)O)N1C(=O)c1ccc(C(C)(C)C)c(OC)c1,40 µM
3,COC[C@H]1C[C@@](CC(C)C)(C(=O)O)N(C(=O)c2ccc(C(C)(C)C)c(OC)c2)[C@H]1COC(C)=O,30 µM
4,COC[C@H]1C[C@@](CC(C)C)(C(=O)O)N(C(=O)c2ccc(C(C)(C)C)c(OC)c2)[C@H]1CF,45 µM
5,COC[C@H]1C[C@@](CC(C)C)(C(=O)O)N(C(=O)c2ccc(C(C)(C)C)c(OC)c2)[C@H]1CNC(C)=O,15 µM
6,COC[C@H]1C[C@@](CC(C)C)(C(=O)O)N(C(=O)c2ccc(C(C)(C)C)c(OC)c2)[C@H]1[C@H]1COC(C)(C)O1,60 µM
7,COC[C@H]1C[C@@](CC(C)C)(C(=O)O)N(C(=O)c2ccc(C(C)(C)C)c(OC)c2)[C@@H]1c1nccs1,15 µM
8,COC[C@H]1C[C@@](CC(C)C)(C(=O)O)N(C(=O)c2ccc(C(C)(C)C)c(OC)c2)[C@H]1CN=[N+]=[N-],100 µM
9,COC[C@H]1C[C@@](CC(C)C)(C(=O)O)N(C(=O)c2ccc(C(C)(C)C)c(OC)c2)[C@H]1COC(=O)OC,30 µM

# Compounds with a lower EC50, results first:
row,EC50,Compound
1,7 µM,COC[C@H]1C[C@@](CC(C)C)(C(=O)O)N(C(=O)c2ccc(C(C)(C)C)c(OC)c2)[C@H]1C(=O)OC
2,0.1 µM,COC[C@H]1C[C@@](CC(C)C)(C(=O)O)N(C(=O)c2ccc(C(C)(C)C)c(OC)c2)[C@H]1c1nccs1
3,2 µM,COC[C@H]1C[C@@](CC(C)C)(C(=O)O)N(C(=O)c2ccc(C(C)(C)C)c(OC)c2)[C@H]1[C@H]1COC(=O)O1
4,2 µM,COC[C@H]1C[C@@](CC(C)C)(C(=O)O)N(C(=O)c2ccc(C(C)(C)C)c(OC)c2)[C@H]1C(N)=O
5,0.6 µM,COC[C@H]1C[C@@](CC(C)C)(C(=O)O)N(C(=O)c2ccc(C(C)(C)C)c(OC)c2)[C@H]1COC
6,7.5 µM,C=CCOC[C@H]1[C@@H](COC)C[C@@](CC(C)C)(C(=O)O)N1C(=O)c1ccc(C(C)(C)C)c(OC)c1
